# Assay results: article PMC8400257, “2-Phenoxy-3-Trichloromethylquinoxalines Are Antiplasmodial Derivatives with Activity against the Apicoplast of Plasmodium falciparum” (Pharmaceuticals, 2021)
# Entries after “also recorded” stand apart in the source; their conditions may differ.
# Tested on: P. falciparum (NF135 strain) hepatic exoerythrocytic forms
# Assay: Liver stage development in infected primary human hepatocytes
# Type: cell-based, Plasmodium falciparum
# Description: The effect of (3i) on the hepatic stage of P. falciparum was next studied in order to know if (3i) was active against another stage of P. falciparum cycle. Cryopreserved primary human hepatocytes were infected with 30,000 freshly extracted P. falciparum sporozoites and simultaneously treated with a dose range (0.9–30 µM) of (3i). Atovaquone (ATQ) was used as a positive parasite-killing control at 25 nM.
# P. falciparum (NF135 strain) sporozoites were isolated by dissection of the salivary glands of infected A. stephensi 14–21 days after an infective blood meal (Department of medical microbiology, University Medical Centre, St Radboud, Nijmegen Netherland). All infected salivary glands were removed by hand dissection, crushed in a potter for sporozoites isolation, and filtrated through a 40 μm filter to remove mosquito debris (Cell Strainer, BD BioSciences, Franklin Lakes, NJ, USA). The sporozoites were counted using a disposable Glasstic microscope slide (KOVA, Garden Grove, CA, USA).
# One day before hepatocyte thawing, 96-well plates were coated by a Corning®® collagen solution (50 µg/mL rat tail type I collagen in 0.02N acid acetic) over night at room temperature. The next day, the wells were washed twice by PBS solution. Cryopreserved primary human hepatocytes (LONZA, Basel, Swiss) were seeded in 96-well plates with a pre-determined seeding dose that gave a single dense layer of attached hepatocytes. Four days post-seeding, each plate well was infected with 30,000 freshly extracted Plasmodium falciparum sporozoites. […]
# Hepatocyte cultures were fixed with 4% paraformaldehyde solution (PFA, Invitrogen) for 10 min. […] Images were analyzed and prepared with ImageJ software. Apicoplast morphology was observed and quantified by eye under a confocal microscope.
# Upon immunostaining of parasites, the study plates were scanned using a CellInsight high-content screening platform equipped with the Studio HCS software (Thermo Fisher Scientific, Waltham, MA, USA). […] The number of host hepatocyte nuclei per well was counted by the system as a measure of toxicity of 3i towards the liver cells. […]
compound,measurement,setting,value
"O=[N+]([O-])c1ccc(Oc2nc3ccccc3nc2C(Cl)(Cl)Cl)cc1 [3i, 2-(4-Nitrophenoxy)-3-trichloromethylquinoxaline]",Effect on exoerythrocytic forms (EEF or schizont) size and numbers,"3i 0.9-30 µM, ATQ 25 nM, 6 or 12 days post-infection",not observe a significant effect on parasite growth; also recorded: no effect
same,Effect on the apicoplast in the hepatic stage,"up to 30 µM, day 6 post-infection",quite not affected
